Assay results taken from the Bradley open melting point set (2014).
Values joined by “and” are separate entries in the source; they are usually repeats but may differ in a detail not shown here. Equal entries are not always repeated. Structures can show the parent of a compound that is named as a salt.

melting point	SMILES
118 °C	O=C(O)/C=C(/CC(=O)O)C(=O)O [cis-aconitic acid]
67 °C	N#CCC(=O)O [cyanoacetic acid]
18 °C and 18.5 °C and 16.8 °C	O=C(O)C1CC1 [cyclopropanecarboxylic acid]
31 °C	CCCCCCCCCC(=O)O [decanoic acid]
32 °C	CCCCCCCCCC(=O)O [decanoic_acid]
33 °C	CCCCS(=O)CCCC [di-n-butyl sulfoxide]
-122 °C	CCCOCCC [di-n-propyl ether]
-66 °C	CCOCOCC [diethoxymethane]
98 °C	CCOC(=O)C(NC(C)=O)C(=O)OCC [diethyl acetamidomalonate]
-11 °C	CCOC(=O)/C=CC(=O)OCC [diethyl maleate]
-40 °C	CCOC(=O)C(=O)OCC [diethyl oxalate]
-18 °C	CCOC(=O)CCCCC(=O)OCC [diethyl_adipate]
2 °C	CCOC(=O)/C=C/C(=O)OCC [diethyl_fumarate]
-10 °C	O=C(C=C/C(=O)OCC)OCC [diethyl_maleate]
211 °C	COC(=O)c1[nH]c(C(=O)OC)c(O)c1O [dimethyl 3,4-dihydroxypyrrole-2,5-dicarboxylate]
4 °C	COC(=O)OC [dimethyl carbonate]
104 °C	COC(=O)/C=C/C(=O)OC [dimethyl fumarate]
30 °C	COC(=O)CCCCCCCCC(=O)OC [dimethyl_sebacate]
212 °C	CNC[C@H](O)c1ccc(O)c(O)c1 [epinephrine]
44 °C	CCOC(=O)c1ccc(OC)c(OC)c1 [ethyl 3,4-dimethoxybenzoate]
126 °C	CCOC(=O)C1=C(C)CC(C)=N1 [ethyl 3,5-dimethylpyrrole-2-carboxylate]

melting point	SMILES
166 °C	CCOC(=O)CCC(C)C1CCC2C3C(O)C(Br)C4CC(OC(C)=O)CCC4(C)C3CC(OC(C)=O)C12C (stereo not drawn) [ethyl 3,12-bis(acetyloxy)-6-bromo-7-hydroxycholan-24-oate]
84 °C	CCOC(=O)CCC(C)C1CCC2C3C=CC4CC(OC(C)=O)CCC4(C)C3CC(OC(C)=O)C12C (stereo not drawn) [ethyl 3,12-bis(acetyloxy)chol-6-en-24-oate]
136 °C	CCOC(=O)c1cc(-c2ccco2)n[nH]1 [ethyl 3-(2-furyl)-1h-pyrazole-5-carboxylate]
18 °C	CCOC(=O)/C=C/N(C)C [ethyl 3-(dimethylamino)acrylate]
32 °C	CCOC(=O)/C=C(/C)N [ethyl 3-aminocrotonate]
-100 °C	CCOCCC(=O)OCC [ethyl 3-ethoxypropionate]
137 °C	CCOC(=O)C1=CN=NC1C (stereo not drawn) [ethyl 3-methyl-1H-pyrazole-4-carboxylate]
124 °C	CCOC(=O)n1ccn(C)c1=S [ethyl 3-methyl-2-thionoimidazoline-1-carboxylate]
90 °C	CCOC(=O)c1ccc(N)cc1 [ethyl 4-aminobenzoate]
37 °C	CCOC(=O)Cc1ccc(O)cc1 [ethyl 4-hydroxyphenylacetate]
100 °C	CCOC(=O)c1ccc([N+](=O)[O-])o1 [ethyl 5-nitro-2-furoate]
-84 °C	CCOC(C)=O [ethyl acetate]
-43 °C	CCOC(=O)CC(C)=O [ethyl acetoacetate]
-34 °C	CCOC(=O)c1ccccc1 [ethyl benzoate]
-93 °C	CCCC(=O)OCC [ethyl butyrate]
130 °C	CCOC(=O)C(C#N)=NO [ethyl isonitrosocyanoacetate]
2 °C	CCOC(=O)c1ccccn1 [ethyl picolinate]
67 °C	CCOC(=O)C1c2ccccc2Oc2ccccc21 [ethyl xanthene-9-carboxylate]
58 °C	CCOC(=O)c1ccc([N+](=O)[O-])cc1 [ethyl_4-nitrobenzoate]
-43 °C	CCOC(=O)CC(C)=O [ethyl_acetoacetate]
-93 °C	CCCC(=O)OCC [ethyl_butyrate]

Second part, the compound before the results:

SMILES	melting point
C[C@@H]1CNC[C@H](C)O1 [cis-2,6-dimethylmorpholine]	-85 °C
C1CC[C@H]2CCCC[C@H]2C1 [cis-decalin]	-43 °C
C(=C/c1ccccc1)/c1ccccc1 [cis-stilbene]	2 °C
COC(=O)[C@H]1[C@@H](OC(=O)c2ccccc2)C[C@@H]2CC[C@H]1N2C [cocaine]	98 °C
COc1cc(/C=C/CO)ccc1O [coniferyl alcohol]	76 °C
O=C4\C=C2/[C@]([C@H]1CC[C@@]3([C@@](O)(C(=O)CO)CC[C@H]3[C@@H]1CC2)C)(C)CC4 [cortexolone]	208 °C
C[C@]12C[C@H](O)[C@H]3[C@@H](CCC4=CC(=O)CC[C@@]43C)[C@@H]1CC[C@@H]2C(=O)CO [corticosterone]	145 °C
COc1cc(/C=C/C(=O)CC(=O)/C=C/c2ccc(O)c(OC)c2)ccc1O [curcumin]	173 °C
O=C1CCC1 [cyclobutanone]	-51 °C
O=C1CCCCCCCCCCC1 [cyclododecanone]	61 °C
C1CCCCC1 [cyclohexane]	7 °C
O=C(O)C1CCCCC1 [cyclohexanecarboxylic acid] [listing 1 of 3 here]	30 °C
O=C(O)C1CCCCC1 [cyclohexanecarboxylic acid] [listing 2 of 3 here]	31 °C
O=C(O)C1CCCCC1 [cyclohexanecarboxylic acid] [listing 3 of 3 here]	31.5 °C
O=C1CCCCC1 [cyclohexanone]	-29 °C and -27.9 °C
O=C(c1ccccc1)C1CCCCC1 [cyclohexyl phenyl ketone]	55 °C
c1ccc(C2CCCCC2)cc1 [cyclohexylbenzene]	6 °C
C1CCCC1 [cyclopentane]	-94 °C (2×) and -93.9 °C
O=C(O)C1CCCC1 [cyclopentanecarboxylic acid]	3.5 °C
OC1CCCC1 [cyclopentanol] [listing 1 of 3 here]	-17.5 °C and -16.2 °C
OC1CCCC1 [cyclopentanol] [listing 2 of 3 here]	-19 °C
OC1CCCC1 [cyclopentanol] [listing 3 of 3 here]	-19 °C

SMILES	melting point
O=C1CCCC1 [cyclopentanone]	-51 °C
NC1CCCC1 [cyclopentylamine]	-85 °C
C#C[C@]5(O)CC[C@H]4[C@H]3[C@@H]([C@@]2(/C(=C\c1oncc1C2)CC3)C)CC[C@@]45C [danazol]	225 °C
Nc1ccc(S(=O)(=O)c2ccc(N)cc2)cc1 [dapsone]	176 °C
C[C@]12CC[C@H]3[C@@H](CCC4=CC(=O)CC[C@@]43C)[C@@H]1CC[C@@H]2C(=O)CO [deoxycorticosterone]	142 °C
C[C@@H]1C[C@H]2[C@@H]3CCC4=CC(=O)C=C[C@]4(C)[C@@]3(F)[C@@H](O)C[C@]2(C)[C@@]1(O)C(=O)CO [dexamethasone]	263 °C
CCCCNCCCC [di-n-butylamine]	-62 °C
CCCCCCCCCCCCSCCCCCCCCCCCC [di-n-dodecyl sulfide]	40 °C
C=CCSCC=C [diallyl sulfide]	-83 °C
OB(O)c1cccc2c1oc1ccccc12 [dibenzofuran-4-boronic acid]	289 °C
c1ccc2c(c1)oc1ccccc12 [dibenzofuran] [listing 1 of 2 here]	81 °C
c1ccc2c(c1)oc1ccccc12 [dibenzofuran] [listing 2 of 2 here]	82 °C
O=C1c2ccccc2CCc2ccccc21 [dibenzosuberone]	33 °C
c1ccc(CNCc2ccccc2)cc1 [dibenzylamine]	-26 °C
O=C(O)C(Cl)Cl [dichloroacetic acid]	10 °C
C[Si](C)(Cl)Cl [dichlorodimethylsilane]	-76 °C
ClCCl [dichloromethane]	-95 °C
ClB(Cl)c1ccccc1 [dichlorophenylborane]	7 °C
C1CCC(NC2CCCCC2)CC1 [dicyclohexylamine]	-2 °C
CCOC(=O)C(C(=O)OCC)c1ccccc1 [diethyl phenylmalonate]	16 °C
CCOCCOCCOCC [diethylene glycol diethyl ether]	-44 °C
CCCCOCCOCCO [diethylene glycol mono-n-butyl ether]	-68 °C

SMILES	melting point
ICI [diiodomethane]	6 °C
CC(C)OC(C)C [diisopropyl_ether]	-86 °C
CC1(C)CC(=O)CC(=O)C1 [dimedone]	148 °C
C[SiH](C)c1ccccc1 [dimethylphenylsilane]	-124 °C
O=S(c1ccccc1)c1ccccc1 [diphenyl sulfoxide]	71 °C
O=C(O)C(c1ccccc1)c1ccccc1 [diphenylacetic acid]	147 °C
C(#Cc1ccccc1)c1ccccc1 [diphenylacetylene] [listing 1 of 2 here]	63 °C
C(#Cc1ccccc1)c1ccccc1 [diphenylacetylene] [listing 2 of 2 here]	60 °C
CCCCCCCCCCCC=O [dodecanal]	12 °C
O=C(O)CCCCCCCCCCC(=O)O [dodecanedioic acid]	129 °C
OC[C@@H](O)[C@H](O)[C@H](O)[C@@H](O)CO [dulcitol]	189 °C
Clc1ccc(COC(Cn2ccnc2)c2ccc(Cl)cc2Cl)cc1 (stereo not drawn) [econazole]	87 °C
O=C1CCCCCN1 [epsilon-caprolactam]	70 °C
O=C1CCCCCO1 [epsilon-caprolactone]	-2 °C
O=C(O)CCCCCCC[C@H](O)[C@H](O)CCCCCCO [erythro-aleuritic acid]	99 °C
O=Cc1cccc2c1CCOC2=O [erythrocentaurin]	140 °C
C[C@]12CC[C@@H]3c4ccc(O)cc4CC[C@H]3[C@@H]1C[C@@H](O)[C@@H]2O [estriol]	282 °C
C[C@]12CC[C@@H]3c4ccc(O)cc4CC[C@H]3[C@@H]1CCC2=O [estrone] [listing 1 of 2 here]	259 °C
C[C@]12CC[C@@H]3c4ccc(O)cc4CC[C@H]3[C@@H]1CCC2=O [estrone] [listing 2 of 2 here]	255 °C
CC [ethane]	-183 °C
CCN(CC)C(C)CN1c2ccccc2Sc2ccccc21 (stereo not drawn) [ethopropazine]	53 °C
C=CC(=O)OCC [ethyl acrylate]	-71 °C
